Experiment [1] relates to chimeric replicon with genotype 3a NS5B. Briefly: microbe, parasite or virus in culture. Type of experiment: cell-based, HCV genotype 3a. To be noted: Hepatitis C virus, read-out: 3a chimera 5% FBS EC50.
Experiment [2] concerns HCV 1a-H77 C316Y mutant subgenomic replicon. The experiment is described as follows: Stable replicon cell culture assay (luciferase), 1a-H77-C316Y mutant. Type of experiment: cell-based, HCV genotype 1a. The note with it: for pEC50: Hepatitis C virus, read-out: Stable Replicon 1a H77-C316Y 5% FBS EC50; for Stable Replicon Fold Resistance C316Y/1a: ratio of stable replicon EC50s, C316Y / 1a H77. A general note: In antiviral work, replicon cells carry a viral genome segment that copies itself.

For experiment [3], the system named is chimeric replicon with genotype 4a NS5B. The experiment is described as follows: microbe, parasite or virus in culture. Type of experiment: cell-based, HCV genotype 4a. The note with it: Hepatitis C virus, read-out: 4a chimera 5% FBS EC50.
For experiment [4], the target named is T1, HCV NS5B polymerase 1b BK strain (Hepatitis C virus genotype 1b, UniProt P26663).
T1 construct: six-histidine tag; made in house; host or cells: E. coli
T1 sequence (P26663 2420-2989): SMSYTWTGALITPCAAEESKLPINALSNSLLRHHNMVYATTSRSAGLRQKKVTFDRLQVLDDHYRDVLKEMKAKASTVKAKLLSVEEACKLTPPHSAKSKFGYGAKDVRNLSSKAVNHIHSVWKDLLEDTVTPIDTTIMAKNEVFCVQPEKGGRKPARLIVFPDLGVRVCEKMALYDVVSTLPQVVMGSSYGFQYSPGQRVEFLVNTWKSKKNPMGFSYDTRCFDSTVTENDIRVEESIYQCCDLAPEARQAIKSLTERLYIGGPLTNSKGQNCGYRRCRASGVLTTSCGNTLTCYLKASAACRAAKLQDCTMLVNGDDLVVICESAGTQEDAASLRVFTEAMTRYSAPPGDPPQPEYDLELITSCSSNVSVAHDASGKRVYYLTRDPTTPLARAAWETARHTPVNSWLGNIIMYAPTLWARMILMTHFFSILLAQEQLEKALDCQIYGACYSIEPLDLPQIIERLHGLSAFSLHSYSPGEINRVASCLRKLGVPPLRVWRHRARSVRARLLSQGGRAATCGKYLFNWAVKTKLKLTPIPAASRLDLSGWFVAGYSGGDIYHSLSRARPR
The experiment is described as follows: HCV NS5B polymerase enzymatic inhibition assay, strain 1b BK. Type of experiment: biochemical. To be noted: enzyme, strain 1b BK; read-out: HCV Polymerase Strain 1b BK IC50. In outline: (§1)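 Incorporation of [3H]UTP (0.284 μM), alongside 20 μM each CTP and ATP, into RNA copied from a 5 nM 2.1 kb genotype 1b negative-strand template was measured after 3 h at 30° C using purified His-tagged NS5B truncated at residue 570. Product was spermine-precipitated, filtered and scintillation-counted; nonlinear regression gave IC50.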

Experiment [5] relates to HCV 1a-H77 subgenomic replicon. The experiment is described as follows: microbe, parasite or virus in culture. It is filed as cell-based, HCV genotype 1a. The note with it: Hepatitis C virus, stable replicon.
The subject of experiment [6] is HCV NS5B polymerase 1a-H77-C316Y. Briefly: biochemical. The note with it: ratio of enzyme IC50s, 1a H77-C316Y / 1a H77. More on the design: species or system HCV genotype 1a. A digest of the protocol:
as §1

Experiment [7] deals with T2, HCV NS5B polymerase 1a-H77 (Hepatitis C virus genotype 1a, UniProt P27958).
T2 construct: six-histidine tag; made in house; host or cells: E. coli
T2 sequence (P27958 2421-2990): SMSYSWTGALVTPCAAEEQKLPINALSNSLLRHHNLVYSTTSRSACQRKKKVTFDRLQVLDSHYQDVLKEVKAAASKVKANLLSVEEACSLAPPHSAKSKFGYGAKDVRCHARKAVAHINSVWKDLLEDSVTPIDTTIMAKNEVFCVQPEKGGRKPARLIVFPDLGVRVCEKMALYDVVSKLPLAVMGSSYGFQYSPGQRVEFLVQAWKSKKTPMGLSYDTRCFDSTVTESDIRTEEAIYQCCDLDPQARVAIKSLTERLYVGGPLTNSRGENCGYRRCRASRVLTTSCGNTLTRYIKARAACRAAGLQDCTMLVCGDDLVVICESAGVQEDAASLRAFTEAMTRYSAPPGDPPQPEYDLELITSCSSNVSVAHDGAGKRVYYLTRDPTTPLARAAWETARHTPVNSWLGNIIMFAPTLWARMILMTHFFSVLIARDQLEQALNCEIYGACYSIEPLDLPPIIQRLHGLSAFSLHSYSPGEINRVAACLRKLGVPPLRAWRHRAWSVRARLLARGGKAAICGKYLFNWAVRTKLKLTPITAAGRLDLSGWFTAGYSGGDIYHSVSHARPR
Briefly: biochemical. On the set-up: species or system HCV genotype 1a. The note with it: enzyme, strain 1a H77; read-out: HCV Polymerase Strain 1a H77 IC50. A digest of the protocol: as §1

The target in experiment [8] is T3, HCV NS5B polymerase 1a-H77-C316Y (Hepatitis C virus genotype 1a, UniProt P27958, C2736Y).
T3 construct: six-histidine tag; made in house; host or cells: E. coli
T3 sequence (P27958 2421-2990 C2736Y): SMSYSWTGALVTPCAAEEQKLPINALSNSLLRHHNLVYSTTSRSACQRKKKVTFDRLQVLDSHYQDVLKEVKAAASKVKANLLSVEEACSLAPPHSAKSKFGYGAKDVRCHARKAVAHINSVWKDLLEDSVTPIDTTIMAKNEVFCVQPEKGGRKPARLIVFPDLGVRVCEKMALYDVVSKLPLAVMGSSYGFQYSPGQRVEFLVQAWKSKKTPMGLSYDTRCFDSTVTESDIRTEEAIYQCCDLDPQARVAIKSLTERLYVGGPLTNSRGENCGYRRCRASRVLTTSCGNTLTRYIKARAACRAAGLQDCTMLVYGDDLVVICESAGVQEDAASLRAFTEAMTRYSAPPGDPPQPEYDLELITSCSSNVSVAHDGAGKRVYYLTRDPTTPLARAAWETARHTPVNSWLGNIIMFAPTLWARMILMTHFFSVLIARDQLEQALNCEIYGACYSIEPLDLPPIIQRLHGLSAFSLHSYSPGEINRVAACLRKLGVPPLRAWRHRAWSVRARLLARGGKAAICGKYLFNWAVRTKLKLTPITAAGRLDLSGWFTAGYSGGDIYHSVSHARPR
The experiment is described as follows: biochemical. On the set-up: species or system HCV genotype 1a. A digest of the protocol: as §1

Experiment [9] concerns chimeric replicon with 2a-J6CF-derived NS5B. The experiment is described as follows: microbe, parasite or virus in culture. It is filed as cell-based, HCV genotype 2a. To be noted: Hepatitis C virus, read-out: 2a chimera 5% FBS EC50.
Experiment [10] has as its system HCV 1b-BB7 subgenomic replicon. Briefly: microbe, parasite or virus in culture. Type of experiment: cell-based, HCV genotype 1b. The note with it: Hepatitis C virus, stable replicon.
Experiment [11] relates to chimeric replicon with genotype 2b NS5B. The experiment is described as follows: microbe, parasite or virus in culture. It is filed as cell-based, HCV genotype 2b. The note with it: Hepatitis C virus, read-out: 2b chimera 5% FBS EC50.
For experiment [12], the system named is HCV 1a-H77 transient subgenomic replicon in Huh-7 derived cell line. The experiment is described as follows: microbe, parasite or virus in culture. To be noted: Hepatitis C virus, Huh-7; transient replicon, 5% FBS; read-out: Transient Replicon 1a H77 5% FBS EC50. Type of experiment: cell-based, HCV genotype 1a. In outline: (§2)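 Subgenomic replicon RNA (no Neo gene) electroporated into Huh-7-derived cells, plated at 5×10^3 cells/well; a 4 h plate gauged transfection efficiency. Cells exposed to 3-fold compound dilutions (0.5% DMSO) for 4 days at 37° C, then lysed for luciferase readout; EC50 calculated.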

The test system of experiment [13] is HCV 1a-H77-C316Y transient subgenomic replicon in Huh-7 derived cell line. The experiment is described as follows: microbe, parasite or virus in culture. It is filed as cell-based, HCV genotype 1a. To be noted: for pEC50: Hepatitis C virus, Huh-7, read-out: Transient Replicon 1a H77-C316Y 5% FBS EC50; for Transient Replicon Fold Resistance C316Y/1a: ratio of transient replicon EC50s, C316Y / 1a H77. A digest of the protocol:
as §2

The mark [14] stands for this setting: 5% FBS, absence of human plasma, read-out: Stable Replicon 1a H77 5% FBS EC50.
Setting [15] is: strain 1a H77, 5% FBS + 40% human plasma, read-out: 1a H77 5% FBS + 40% Human Plasma EC50.
The mark [16] stands for this setting: strain 1a H77, 5% FBS, no human plasma, read-out: 1a H77 5% FBS EC50.
The mark [17] stands for this setting: strain 1a H77, 5% FBS, read-out: 1a H77 5% FBS EC50.
[18] abbreviates: strain 1b BB7, 5% FBS + 40% human plasma, read-out: 1b BB7 5% FBS + 40% Human Plasma EC50.
Where [19] appears, read: strain 1b BB7, 5% FBS, no human plasma, read-out: 1b BB7 5% FBS EC50.
Setting [20] is: strain 1b BB7, 5% FBS, read-out: 1b BB7 5% FBS EC50.

Usually pEC50 stands for the EC50 on a negative log10 scale, so that one unit is a factor of ten. Broadly, the pIC50 is the negative decadic logarithm of the IC50, by convention in mol/L.

pEC50, pIC50: −log10 of the molar value. Where two headings read alike, the source gives them in different places.

In the case of `CS(=O)(=O)N(CCCc1n[nH]c(=O)o1)c1cc2oc(-c3ccc(F)cc3)c(-c3ncc[nH]3)c2cc1C1CC1` [Example 179, N-[5-cyclopropyl-2-(4-fluorophenyl)-3-(1H-imidazol-2-yl)-1-benzofuran-6-yl]-N-[3-(5-oxo-4,5-dihydro-1,3,4-oxadiazol-2-yl)propyl]methanesulfonamide], the pEC50 in [1] was 7.98; in experiment [2], 6.16; in experiment [3], 7.11; in [5] (setting [14]) it was 8.01; in [5] (setting [15]), 7.28; in experiment [5] (setting [16]) it was 8.01. For the same molecule, the pEC50 in [5] (setting [17]) was 8.01; in [9], 7.18; in experiment [10] (setting [18]) it was 7.11; in experiment [10] (setting [19]), 8.05; in [10] (setting [20]) it was 8.05; in experiment [11], 7.07. In [2], the “Stable Replicon Fold Resistance C316Y/1a” value is listed as 70.0 fold. Moreover, the pIC50 was 7.60 in [4], 8.40 in experiment [7] and 7.35 in experiment [8]. Also, the “C316Y/1a Fold Resistance” value in [6] is given as 11 fold.

For `CS(=O)(=O)N(CCCc1nsc(=O)[nH]1)c1cc2oc(-c3ccc(F)cc3)c(-c3ncc[nH]3)c2cc1C1CC1` [Example 178, N-[5-cyclopropyl-2-(4-fluorophenyl)-3-(1H-imidazol-2-yl)-1-benzofuran-6-yl]-N-[3-(5-oxo-4,5-dihydro-1,2,4-thiadiazol-3-yl)propyl]methanesulfonamide], the pEC50 in experiment [1] was 7.61; in experiment [2], 6.26; in [3], 6.62; in experiment [5] (setting [14]), 7.26; in experiment [5] (setting [15]) it was 6.37; in [5] (setting [16]) it was 7.26. For the same molecule, the pEC50 was 7.26 in experiment [5] (setting [17]); 6.94 in experiment [9]; 6.56 in [10] (setting [18]); 7.74 in [10] (setting [19]); 7.74 in [10] (setting [20]); 7.04 in experiment [11]. Besides, the “Stable Replicon Fold Resistance C316Y/1a” value in experiment [2] is given as 10.0 fold. In addition, the pIC50 is 7.19 in experiment [4], 7.89 in experiment [7] and 6.08 in experiment [8]. For the same molecule, the “C316Y/1a Fold Resistance” value in experiment [6] was determined as 64 fold.

With `CS(=O)(=O)CCCCN(c1cc2oc(-c3ccc(F)cc3)c(C3=NOCCN3)c2cc1C1CC1)S(C)(=O)=O` [Example 122, N-[5-cyclopropyl-3-(5,6-dihydro-4H-1,2,4-oxadiazin-3-yl)-2-(4-fluorophenyl)-1-benzofuran-6-yl]-N-[4-(methylsulfonyl)butyl]methanesulfonamide], the pEC50 was 7.49 in [1]; 7.08 in experiment [3]; 8.08 in experiment [5] (setting [14]); 7.30 in experiment [5] (setting [15]); 8.08 in [5] (setting [16]); 8.08 in experiment [5] (setting [17]). Moreover, the negative-log EC50 (pEC50) is 8.17 in experiment [12]; 7.21 in [13]; 6.89 in experiment [9]; 7.09 in experiment [10] (setting [18]); 7.96 in experiment [10] (setting [19]); 7.96 in [10] (setting [20]). For the same molecule, in experiment [11], the pEC50 is 6.90. In addition, the pIC50 is 7.60 in experiment [4], 8.16 in [7] and 7.34 in experiment [8]. Also, in [6], the “C316Y/1a Fold Resistance” value is given as 7 fold. In addition, the “Transient Replicon Fold Resistance C316Y/1a” value in experiment [13] is recorded as 9 fold.

In the case of `Cc1c[nH]c(-c2c(-c3ccc(F)cc3)oc3cc(N(CCO)S(C)(=O)=O)c(C4CC4)cc23)n1` [Example 189, N-[5-cyclopropyl-2-(4-fluorophenyl)-3-(4-methyl-1H-imidazol-2-yl)-1-benzofuran-6-yl]-N-(2-hydroxyethyl)methanesulfonamide], the pEC50 in experiment [1] is 6.64; in [3], 5.53; in [5] (setting [14]), 6.79; in [5] (setting [15]) it was 6.11; in experiment [5] (setting [16]), 6.79; in experiment [5] (setting [17]), 6.79. Besides, the pEC50 in [12] is 6.86; in experiment [13], 6.49; in experiment [9], 5.98; in [10] (setting [18]), 6.35; in experiment [10] (setting [19]), 6.94; in experiment [10] (setting [20]), 6.94. The pEC50 in [11] is 5.73. The pIC50 in experiment [4] was 6.33; in [7] it was 7.59; in experiment [8] it was 6.34. In addition, the “C316Y/1a Fold Resistance” value in [6] was 18 fold. Also, the “Transient Replicon Fold Resistance C316Y/1a” value in experiment [13] is 2 fold.

For the molecule `CS(=O)(=O)N(CCCCF)c1cc2oc(-c3ccc(F)cc3)c(-c3ncc[nH]3)c2cc1C1CC1` [Example 83, N-[5-cyclopropyl-2-(4-fluorophenyl)-3-(1H-imidazol-2-yl)-1-benzofuran-6-yl]-N-(4-fluorobutyl)methanesulfonamide], the negative logarithm of the EC50 (pEC50) in [1] was 8.21; in [3], 7.17; in [5] (setting [14]), 8.16; in experiment [5] (setting [15]) it was 7.05; in [5] (setting [16]) it was 8.16; in experiment [5] (setting [17]), 8.16. The pEC50 in experiment [12] was 8.22; in experiment [13] it was 6.89; in [9], 7.33; in experiment [10] (setting [18]), 7.02; in experiment [10] (setting [19]) it was 8.09; in experiment [10] (setting [20]), 8.09. In addition, in [11], the negative logarithm of the EC50 (pEC50) was 7.33. The negative-log IC50 (pIC50) in experiment [4] was 7.59; in experiment [7] it was 8.26; in experiment [8] it was 7.10. Also, in experiment [6], the “C316Y/1a Fold Resistance” value is reported as 14 fold. Moreover, the “Transient Replicon Fold Resistance C316Y/1a” value in [13] is listed as 21 fold.

For `CS(=O)(=O)CCN(c1cc2oc(-c3ccc(F)cc3)c(C3=NOCCN3)c2cc1C1CC1)S(C)(=O)=O` [Example 9, N-[5-cyclopropyl-3-(5,6-dihydro-4H-1,2,4-oxadiazin-3-yl)-2-(4-fluorophenyl)-1-benzofuran-6-yl]-N-[2-(methylsulfonyl)ethyl]methanesulfonamide], the pEC50 in experiment [1] is 7.65; in experiment [3], 6.90; in [5] (setting [14]), 8.08; in experiment [5] (setting [15]), 7.17; in experiment [5] (setting [16]) it was 8.08; in [5] (setting [17]) it was 8.08. Moreover, the pEC50 in experiment [12] was 8.11; in experiment [13], 7.24; in experiment [9], 6.53; in experiment [10] (setting [18]) it was 6.86; in experiment [10] (setting [19]), 7.82; in [10] (setting [20]) it was 7.82. For the same molecule, the negative-log EC50 (pEC50) in experiment [11] is 6.53. For the same molecule, the pIC50 in experiment [4] was 7.47; in experiment [7], 8.41; in experiment [8], 7.52. Moreover, in experiment [6], the “C316Y/1a Fold Resistance” value is 8 fold. Further, the “Transient Replicon Fold Resistance C316Y/1a” value in experiment [13] turned out to be 7 fold.

The values are drawn from patent publication US20160355530A1, “HEPATITIS C INHIBITORS AND USES THEREOF” (AbbVie Inc., priority 2010, published 2016).
